Experiment: xn = mol fraction of the nth substance listed
Settings: Liquid

CCCCCCCCCC [decane] + O=C=O
Settings | mass density [kg/m3]
303.04 K, 8020 kPa, x2 = 0.869 | 798.45
303.15 K, 9990 kPa, x2 = 0.4698 | 756.27
303.15 K, 11990 kPa, x2 = 0.4698 | 758.43
303.15 K, 14000 kPa, x2 = 0.4698 | 760.53
303.15 K, 15980 kPa, x2 = 0.4698 | 762.54
303.15 K, 17990 kPa, x2 = 0.4698 | 764.51
303.15 K, 19010 kPa, x2 = 0.2361 | 748.64
303.15 K, 19010 kPa, x2 = 0.4698 | 765.49
303.16 K, 7980 kPa, x2 = 0.2361 | 740.1
303.16 K, 8020 kPa, x2 = 0.4698 | 754.05
303.16 K, 9970 kPa, x2 = 0.2361 | 741.73
303.16 K, 12020 kPa, x2 = 0.2361 | 743.35
303.16 K, 16020 kPa, x2 = 0.2361 | 746.43
303.17 K, 14020 kPa, x2 = 0.2361 | 744.91
303.17 K, 18020 kPa, x2 = 0.2361 | 747.92
303.31 K, 10030 kPa, x2 = 0.869 | 807.43
303.31 K, 14030 kPa, x2 = 0.869 | 824.12
303.31 K, 18050 kPa, x2 = 0.869 | 837.96
303.36 K, 12020 kPa, x2 = 0.869 | 816.02
303.37 K, 16020 kPa, x2 = 0.869 | 831.09
313 K, 7980 kPa, x2 = 0.71 | 763.24
313 K, 9940 kPa, x2 = 0.71 | 767.44
313 K, 13970 kPa, x2 = 0.71 | 775.3
313.01 K, 11690 kPa, x2 = 0.71 | 770.91
313.01 K, 18020 kPa, x2 = 0.71 | 782.43
313.03 K, 16020 kPa, x2 = 0.71 | 778.96
313.06 K, 13970 kPa, x2 = 0.4698 | 750.5
313.07 K, 15990 kPa, x2 = 0.4698 | 752.76
313.09 K, 17990 kPa, x2 = 0.4698 | 754.91
313.09 K, 19000 kPa, x2 = 0.4698 | 755.97
313.1 K, 8010 kPa, x2 = 0.4698 | 743.23
313.11 K, 11990 kPa, x2 = 0.4698 | 748.15
313.12 K, 10010 kPa, x2 = 0.4698 | 745.74
313.13 K, 16010 kPa, x2 = 0.2361 | 738.82
313.13 K, 18010 kPa, x2 = 0.2361 | 740.41
313.14 K, 10010 kPa, x2 = 0.2361 | 733.81
313.14 K, 19020 kPa, x2 = 0.2361 | 741.18
313.15 K, 7990 kPa, x2 = 0.2361 | 732.05
313.15 K, 14010 kPa, x2 = 0.2361 | 737.19
313.16 K, 12000 kPa, x2 = 0.2361 | 735.5
313.23 K, 18020 kPa, x2 = 0.869 | 812.48
313.27 K, 10000 kPa, x2 = 0.869 | 776.26
313.31 K, 14000 kPa, x2 = 0.869 | 796.68
313.33 K, 12000 kPa, x2 = 0.869 | 787.12
313.36 K, 7990 kPa, x2 = 0.869 | 762.46
313.37 K, 16040 kPa, x2 = 0.869 | 804.9
323.02 K, 8000 kPa, x2 = 0.71 | 747.45
323.02 K, 18230 kPa, x2 = 0.71 | 769.63
323.09 K, 14030 kPa, x2 = 0.71 | 761.43
323.11 K, 16040 kPa, x2 = 0.71 | 765.46
323.12 K, 9940 kPa, x2 = 0.71 | 752.26
323.13 K, 18030 kPa, x2 = 0.2361 | 732.88
323.15 K, 8010 kPa, x2 = 0.4698 | 732.04
323.15 K, 9980 kPa, x2 = 0.4698 | 734.86
323.15 K, 11970 kPa, x2 = 0.71 | 756.86
323.15 K, 12030 kPa, x2 = 0.2361 | 727.66
323.15 K, 16020 kPa, x2 = 0.2361 | 731.17
323.15 K, 18000 kPa, x2 = 0.4698 | 745.11
323.15 K, 19000 kPa, x2 = 0.4698 | 746.27
323.15 K, 19020 kPa, x2 = 0.2361 | 733.69
323.16 K, 14030 kPa, x2 = 0.2361 | 729.45
323.17 K, 12020 kPa, x2 = 0.4698 | 737.61
323.17 K, 15980 kPa, x2 = 0.4698 | 742.66
323.18 K, 8030 kPa, x2 = 0.2361 | 723.85
323.18 K, 9970 kPa, x2 = 0.2361 | 725.74
323.19 K, 13990 kPa, x2 = 0.4698 | 740.16
323.29 K, 16020 kPa, x2 = 0.869 | 778.27
323.3 K, 10010 kPa, x2 = 0.869 | 740.74
323.3 K, 18080 kPa, x2 = 0.869 | 787.62
323.34 K, 11990 kPa, x2 = 0.869 | 755.53
323.38 K, 14000 kPa, x2 = 0.869 | 767.56
333.09 K, 10020 kPa, x2 = 0.71 | 736.44
333.1 K, 11960 kPa, x2 = 0.71 | 741.69
333.12 K, 8090 kPa, x2 = 0.71 | 730.25
333.12 K, 17970 kPa, x2 = 0.4698 | 735.23
333.12 K, 18050 kPa, x2 = 0.71 | 756.13
333.13 K, 8020 kPa, x2 = 0.2361 | 715.58
333.13 K, 11990 kPa, x2 = 0.4698 | 726.89
333.13 K, 14000 kPa, x2 = 0.4698 | 729.82
333.13 K, 14030 kPa, x2 = 0.2361 | 721.58
333.13 K, 14050 kPa, x2 = 0.71 | 746.85
333.13 K, 15960 kPa, x2 = 0.4698 | 732.55
333.13 K, 16020 kPa, x2 = 0.2361 | 723.45
333.13 K, 19020 kPa, x2 = 0.2361 | 726.15
333.14 K, 9930 kPa, x2 = 0.4698 | 723.71
333.15 K, 10020 kPa, x2 = 0.2361 | 717.65
333.15 K, 12030 kPa, x2 = 0.2361 | 719.64
333.15 K, 16040 kPa, x2 = 0.71 | 751.6
333.15 K, 18020 kPa, x2 = 0.2361 | 725.24
333.19 K, 7980 kPa, x2 = 0.4698 | 720.48
333.19 K, 15930 kPa, x2 = 0.869 | 754.21
333.2 K, 18080 kPa, x2 = 0.869 | 762.91
333.22 K, 14070 kPa, x2 = 0.869 | 745.06
343.02 K, 10240 kPa, x2 = 0.71 | 720.54
343.02 K, 12280 kPa, x2 = 0.71 | 726.49
343.1 K, 12070 kPa, x2 = 0.4698 | 716.06
343.11 K, 16090 kPa, x2 = 0.4698 | 722.46
343.11 K, 19120 kPa, x2 = 0.4698 | 726.87
343.12 K, 14000 kPa, x2 = 0.71 | 730.99
343.13 K, 8070 kPa, x2 = 0.4698 | 708.84
343.13 K, 16030 kPa, x2 = 0.71 | 736.12
343.13 K, 18000 kPa, x2 = 0.71 | 741.08
343.14 K, 18000 kPa, x2 = 0.4698 | 725.25
343.16 K, 18050 kPa, x2 = 0.869 | 743.75
343.18 K, 9930 kPa, x2 = 0.4698 | 712.24
343.19 K, 13920 kPa, x2 = 0.4698 | 719
343.21 K, 12010 kPa, x2 = 0.2361 | 711.78
343.23 K, 16060 kPa, x2 = 0.869 | 735.77
343.23 K, 18020 kPa, x2 = 0.2361 | 718.14
343.24 K, 14010 kPa, x2 = 0.2361 | 713.97
343.24 K, 16010 kPa, x2 = 0.2361 | 716.11
343.25 K, 8010 kPa, x2 = 0.2361 | 707.17
343.25 K, 10010 kPa, x2 = 0.2361 | 709.51
343.26 K, 19020 kPa, x2 = 0.2361 | 719.17
352.97 K, 9880 kPa, x2 = 0.71 | 706.61
352.99 K, 18040 kPa, x2 = 0.869 | 719.9
353.01 K, 11990 kPa, x2 = 0.71 | 711.36
353.06 K, 16040 kPa, x2 = 0.4698 | 711.93
353.06 K, 19020 kPa, x2 = 0.2361 | 711.31
353.09 K, 14010 kPa, x2 = 0.4698 | 708.37
353.09 K, 18080 kPa, x2 = 0.4698 | 715.25
353.1 K, 12020 kPa, x2 = 0.2361 | 703.37
353.11 K, 10030 kPa, x2 = 0.2361 | 700.96
353.11 K, 14010 kPa, x2 = 0.2361 | 705.7
353.12 K, 10090 kPa, x2 = 0.4698 | 700.82
353.12 K, 17940 kPa, x2 = 0.71 | 725.1
353.12 K, 18020 kPa, x2 = 0.2361 | 710.21
353.12 K, 19060 kPa, x2 = 0.4698 | 716.77
353.13 K, 8010 kPa, x2 = 0.2361 | 698.4
353.13 K, 8040 kPa, x2 = 0.4698 | 696.42
353.13 K, 12050 kPa, x2 = 0.4698 | 704.69
353.13 K, 16020 kPa, x2 = 0.2361 | 707.98
353.14 K, 15980 kPa, x2 = 0.71 | 719.92
353.26 K, 14130 kPa, x2 = 0.71 | 715.78
362.92 K, 12050 kPa, x2 = 0.71 | 698.95
362.99 K, 18090 kPa, x2 = 0.71 | 712.19
363.08 K, 16050 kPa, x2 = 0.71 | 707.18
363.28 K, 14100 kPa, x2 = 0.71 | 702.89
